Patent publication USRE48461E1, “Modulation of androgen receptor expression” (Ionis Pharmaceuticals, Inc., priority 2012, dated 2021)
pIC50: −log10 of the molar value. Oligonucleotides are written 5' to 3', each unit as a sugar letter and its base; * is a phosphorothioate linkage, no mark a phosphodiester; rarer units and linkages stand in square brackets, end groups in braces. Plain capitals give the bases only. e = 2'-O-(2-methoxyethyl) (MOE); k = constrained ethyl (cEt); [5mC] = 5-methylcytosine; d = 2'-deoxy (DNA)

Columns and labels:
[1] = test system: AR mRNA; test: Antisense inhibition of human AR in HuVEC cells, single concentration (electroporation, qRT-PCR RTS3559); type: cell-based
Procedure, shortened: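 HuVEC cells electroporated with antisense oligonucleotides at a single concentration. AR mRNA quantified by qRT-PCR using human primer-probe set RTS3559 and normalised to total RNA content by RIBOGREEN.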

[2] = test system: AR mRNA; test: Dose-dependent antisense inhibition of human AR in HuVEC cells (electroporation, qRT-PCR RTS3559, IC50); type: cell-based; settings: HuVEC
Procedure, shortened: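 HuVEC cells dosed with antisense oligonucleotides by electroporation and treated approximately 16 hours. AR mRNA quantified by real-time qPCR with primer probe set RTS3559 and normalised to total RNA by RIBOGREEN; IC50 from dose-response.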

[3] = Table 19, 500 nM oligonucleotide, electroporation, approximately 24 hours, relative to untreated control
[4] = Table 31, electroporation, approximately 16 hours
[5] = Table 20, 500 nM oligonucleotide, electroporation, approximately 24 hours, relative to untreated control
[6] = Table 32, electroporation, approximately 16 hours
[7] = Table 35, electroporation, approximately 16 hours
[8] = Table 34, electroporation, approximately 16 hours
[9] = Table 29, electroporation, approximately 16 hours
[10] = Table 30, electroporation, approximately 16 hours

## 583809 (antisense kT*kG*kT*d[5mC]*d[5mC]*dT*dT*dG*dG*dA*dG*dG*dA*kA*kG*kT) [compound 583809]
[1]; [3]
  % inhibition: 45%
[2]; [4]
  percent inhibition of AR, 46.9 nM: 13%
  percent inhibition of AR, 187.5 nM: 37%
  percent inhibition of AR, 750.0 nM: 68%
  percent inhibition of AR, 3000.0 nM: 81%
  pIC50: 6.44

## 583834 (kA*kG*k[5mC]*dT*dG*dT*dT*d[5mC]*d[5mC]*d[5mC]*d[5mC]*dT*dG*kG*kA*k[5mC]; antisense) [compound 583834]
[1]; [5]
  % inhibition: 52%
[2]; [6]
  percent inhibition of AR, 46.9 nM: 34%
  percent inhibition of AR, 187.5 nM: 54%
  percent inhibition of AR, 750.0 nM: 73%
  percent inhibition of AR, 3000.0 nM: 84%
  pIC50: 6.89

## 560132 (antisense kG*kT*kT*dG*dA*dT*dT*dT*dA*dA*dT*dG*kG*kT*kT*eG) [compound 560132]
[1]; 1,000 nM ASO, ~24 h, Table 13
  % inhibition: 58%
[2]; 31.25 nM, ~16 h, Table 14
  percent inhibition of AR: 8%
[2]; 62.5 nM, ~16 h, Table 14
  percent inhibition of AR: 19%
[2]; 125.0 nM, ~16 h, Table 14
  percent inhibition of AR: 21%
[2]; 500.0 nM, ~16 h, Table 14
  percent inhibition of AR: 65%
[2]; 1000.0 nM, ~16 h, Table 14
  percent inhibition of AR: 85%
[2]; ~16 h, Table 14
  pIC50: 6.60

## 584167 (kG*kA*kG*dT*dG*dT*dT*dA*dA*dT*dG*dA*dA*kG*kA*k[5mC]; antisense) [compound 584167]
[1]; Table 24, 1,000 nM oligonucleotide, electroporation, approximately 24 hours, relative to untreated control
  % inhibition: 78%
[2]; [7]
  percent inhibition of AR, 46.9 nM: 13%
  percent inhibition of AR, 187.5 nM: 45%
  percent inhibition of AR, 750.0 nM: 76%
  percent inhibition of AR, 3000.0 nM: 93%
  pIC50: 6.68

## 583799 (antisense kT*kG*k[5mC]*d[5mC]*dT*dT*d[5mC]*dG*dG*dA*dT*dA*d[5mC]*kT*kG*k[5mC]) [compound 583799]
[1]; [3]
  % inhibition: 65%
[2]; [4]
  percent inhibition of AR, 46.9 nM: 29%
  percent inhibition of AR, 187.5 nM: 60%
  percent inhibition of AR, 750.0 nM: 76%
  percent inhibition of AR, 3000.0 nM: 85%
  pIC50: 6.85

## 584128 (kA*kT*kT*d[5mC]*dT*dT*dG*dA*d[5mC]*dT*dG*dT*d[5mC]*kT*kG*kA; antisense) [compound 584128]
[1]; Table 23, 500 nM oligonucleotide, electroporation, approximately 24 hours, relative to untreated control
  % inhibition: 38%
[2]; [8]
  percent inhibition of AR, 46.9 nM: 20%
  percent inhibition of AR, 187.5 nM: 22%
  percent inhibition of AR, 750.0 nM: 41%
  percent inhibition of AR, 3000.0 nM: 72%
  pIC50: 6.13

## 549387 (kA*kG*k[5mC]*dT*dT*d[5mC]*dA*dT*d[5mC]*dT*d[5mC]*d[5mC]*dA*k[5mC]*kA*kG; antisense) [compound 549387]
[1]; 500 nM ASO, electroporation, ~24 h, Table 1
  % inhibition: 84%
[2]; 55.6 nM, ~16 h, Table 4
  percent inhibition of AR: 9%
[2]; 166.7 nM, ~16 h, Table 4
  percent inhibition of AR: 41%
[2]; 500.0 nM, ~16 h, Table 4
  percent inhibition of AR: 68%
[2]; 1500.0 nM, ~16 h, Table 4
  percent inhibition of AR: 92%
[2]; ~16 h, Table 4
  pIC50: 6.58

## 583635 (antisense k[5mC]*kT*kG*dG*d[5mC]*dT*d[5mC]*d[5mC]*dG*d[5mC]*dA*d[5mC]*dT*k[5mC]*kG*kG) [compound 583635]
[1]; 500 nM ASO, ~24 h, Table 17
  % inhibition: 50%
[2]; [9]
  percent inhibition of AR, 46.9 nM: 35%
  percent inhibition of AR, 187.5 nM: 56%
  percent inhibition of AR, 750.0 nM: 69%
  percent inhibition of AR, 3000.0 nM: 78%
  pIC50: 6.89

## 583667 (antisense k[5mC]*kG*k[5mC]*dT*d[5mC]*dT*dG*dA*d[5mC]*dA*dG*d[5mC]*d[5mC]*kT*k[5mC]*kA) [compound 583667]
[1]; 500 nM ASO, ~24 h, Table 17
  % inhibition: 42%
[2]; [10]
  percent inhibition of AR, 46.9 nM: 35%
  percent inhibition of AR, 187.5 nM: 55%
  percent inhibition of AR, 750.0 nM: 73%
  percent inhibition of AR, 3000.0 nM: 82%
  pIC50: 6.85

## 583881 (k[5mC]*k[5mC]*kT*dT*dT*dG*dG*dT*dG*dT*dA*dA*d[5mC]*k[5mC]*kT*k[5mC]; antisense) [compound 583881]
[1]; [5]
  % inhibition: 47%
[2]; [6]
  percent inhibition of AR, 46.9 nM: 28%
  percent inhibition of AR, 187.5 nM: 50%
  percent inhibition of AR, 750.0 nM: 85%
  percent inhibition of AR, 3000.0 nM: 91%
  pIC50: 6.82
